A short description of the assay: Inhibitory binding constant in guinea pig brain homogenate was reported at Opioid receptor delta 1 at a temperature 25 degree Celsius labeled with [3H](D-Ala2-D-Leu5)-enkephalin (0.7 nM).

With `O=C1c2ccc(O)c3c2C24CCN(CC5CC5)C1[C@]2(O)CCC(=O)[C@@H]4O3` (stereo partly specified), the affinity corresponds to a Ki of 281 nM.

These data come from BindingDB's records for doi:10.1021/jm00145a024 (1985).
